According to the supplement of paper PMC10307832:

Assays:
Assay in all cases: relative viability (nuclei count vs DMSO), 5 days (fraction); higher = more cells survive
NVP-TAE684 + Decitabine = compound: COc1cc(N2CCC(N3CCN(C)CC3)CC2)ccc1Nc1ncc(Cl)c(Nc2ccccc2S(=O)(=O)C(C)C)n1 [NVP-TAE684] + Nc1ncn([C@H]2C[C@H](O)[C@@H](CO)O2)c(=O)n1 [Decitabine] (partner 2 µM)
Outline: (§1)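 Five library-drug doses in √10 steps were combined with a fixed anchor-drug dose, or a single drug was given alone, by pin tool to lung cancer cell lines in 1536-well plates the day after seeding. Nuclei were stained and counted after 5 days. Relative viability is the nuclei count in treated wells over that in vehicle wells, taken as the median of duplicate plates.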

Vandetanib + Linsitinib = compound: COc1cc2/c(=N/c3ccc(Br)cc3F)nc[nH]c2cc1OCC1CCN(C)CC1 [Vandetanib] + C[C@]1(O)C[C@@H](c2nc(-c3ccc4ccc(-c5ccccc5)nc4c3)c3c(N)nccn32)C1 [Linsitinib] (partner 1 µM)
Outline: as §1

[1] = compound: C1=CC=C2C(=C1)N=C(S2)C(C#N)C3=NC(=NC=C3)NCCC4=CN=CC=C4 + CS(=O)(=O)CCNCc1ccc(-c2ccc3ncnc(Nc4ccc(OCc5cccc(F)c5)c(Cl)c4)c3c2)o1 [Lapatinib] (partner 2 µM)
Outline: as §1

[2] = compound: C1=CC=C2C(=C1)N=C(S2)C(C#N)C3=NC(=NC=C3)NCCC4=CN=CC=C4 + N=C(N)NC(=N)NCCc1ccccc1 [Phenformin] (partner 250 µM)
Outline: as §1

Row | Cell Line | relative viability (NVP-TAE684 + Decitabine; first compound 0.2 µM) | relative viability (NVP-TAE684 + Decitabine; first compound 0.6325 µM) | relative viability (NVP-TAE684 + Decitabine; first compound 2 µM) | relative viability (Vandetanib + Linsitinib; first compound 0.02 µM) | relative viability (Vandetanib + Linsitinib; first compound 0.06325 µM) | relative viability (Vandetanib + Linsitinib; first compound 0.2 µM) | relative viability (Vandetanib + Linsitinib; first compound 0.6325 µM) | relative viability (Vandetanib + Linsitinib; first compound 2 µM) | relative viability ([1]; first compound 0.005 µM) | relative viability ([1]; first compound 0.01581 µM) | relative viability ([1]; first compound 0.05 µM) | relative viability ([1]; first compound 0.1581 µM) | relative viability ([1]; first compound 0.5 µM) | relative viability ([2]; first compound 0.005 µM) | relative viability ([2]; first compound 0.01581 µM) | relative viability ([2]; first compound 0.05 µM) | relative viability ([2]; first compound 0.1581 µM) | relative viability ([2]; first compound 0.5 µM)
1 | NCI-H1755 | 0.715 | 0.756 | 0.667 | 0.985 | 0.939 | 0.922 | 0.974 | 0.936 | 0.874 | 1.08 | 1 | 1.17 | 0.78 | 0.617 | 0.641 | 0.621 | 0.695 | 0.607
2 | NCI-H1792 | 0.359 | 0.558 | 0.309 | 0.559 | 0.605 | 0.559 | 0.547 | 0.454 | – | 0.881 | 0.936 | 1.52 | 0.661 | – | – | 0.286 | 0.697 | 0.388
3 | NCI-H1793 | 0.459 | 0.468 | 0.361 | 0.87 | 0.74 | 0.819 | 0.897 | 0.587 | 0.748 | 0.647 | 0.668 | 0.828 | 0.792 | 0.382 | 0.369 | 0.328 | 0.454 | 0.355
4 | NCI-H1915 | 0.284 | 0.263 | 0.257 | 1.06 | 1.09 | 1.08 | 1.1 | 1.13 | 0.681 | 0.975 | 1.01 | 1.14 | 0.835 | 0.312 | 0.37 | 0.356 | 0.398 | 0.353
5 | NCI-H1944 | 0.437 | 0.519 | 0.413 | 1.08 | 1.16 | 1.18 | 0.981 | 0.94 | 0.89 | 0.847 | 0.746 | 0.977 | 0.819 | 0.159 | 0.227 | 0.206 | 0.234 | 0.203
6 | NCI-H1975 | 0.401 | 0.389 | 0.36 | 0.902 | 0.801 | 0.897 | 0.803 | 0.902 | 0.554 | 0.91 | 0.831 | 0.908 | 0.62 | 0.301 | 0.42 | 0.404 | 0.447 | 0.359
7 | NCI-H1993 | 0.618 | 0.629 | 0.501 | 0.803 | 0.639 | 0.662 | 0.762 | 0.675 | 0.652 | 0.779 | 0.824 | 0.747 | 0.809 | 0.586 | 0.514 | 0.461 | 0.58 | 0.542
8 | NCI-H2009 | 0.372 | 0.34 | 0.345 | 1.17 | 1.16 | 1.3 | 1.22 | 1.19 | 0.899 | 0.892 | 0.977 | 1.11 | 1.02 | 0.466 | 0.477 | 0.476 | 0.508 | 0.437
9 | NCI-H2023 | 0.238 | 0.199 | 0.0999 | 0.698 | 0.607 | 0.676 | 0.589 | 0.485 | 0.793 | 0.85 | 0.793 | 1.2 | 0.711 | 0.384 | 0.439 | 0.424 | 0.47 | 0.423
10 | NCI-H2085 | 0.533 | 0.458 | 0.458 | 1.01 | 0.837 | 0.855 | 0.945 | 0.793 | 0.83 | 0.737 | 0.763 | 0.891 | 0.761 | 0.639 | 0.702 | 0.595 | 0.819 | 0.799
11 | NCI-H2087 | 0.305 | 0.261 | 0.192 | 0.918 | 1.03 | 0.831 | 0.922 | 0.911 | 1.05 | 0.898 | 1.03 | 1.14 | 0.966 | 0.472 | 0.495 | 0.471 | 0.623 | 0.426
12 | NCI-H2126 | 0.56 | 0.603 | 0.459 | 0.67 | 0.728 | 0.73 | 0.765 | 0.647 | 0.75 | 0.718 | 0.721 | 0.873 | 0.685 | 0.536 | 0.529 | 0.505 | 0.543 | 0.529
13 | NCI-H2347 | 0.602 | 0.679 | 0.571 | 0.976 | 0.64 | 0.929 | 0.995 | 0.982 | 1.08 | 0.909 | 0.846 | 1.04 | 0.91 | 0.417 | 0.334 | 0.322 | 0.611 | 0.455
14 | NCI-H2405 | 0.684 | 0.683 | 0.397 | 0.901 | 0.552 | 0.959 | 1.01 | 0.665 | 1.05 | 0.817 | 1.11 | 1.11 | 1.02 | 0.362 | 0.364 | 0.358 | 0.455 | 0.407
15 | NCI-H3122 | 0.152 | 0.109 | 0.103 | 1.01 | 0.946 | 0.957 | 0.964 | 0.993 | 1.01 | 1 | 1.06 | 1 | 1.03 | 0.393 | 0.37 | 0.364 | 0.44 | 0.35
16 | PC-3 [JPC-3] | 0.846 | 0.73 | 0.75 | 0.946 | 0.882 | 0.963 | 0.876 | 0.522 | 0.439 | 0.441 | 0.423 | 0.484 | 0.429 | 0.502 | 0.485 | 0.456 | 0.48 | 0.419
17 | PC-14 | 0.217 | 0.191 | 0.0633 | 0.988 | 0.911 | 1.03 | 0.617 | 0.249 | 0.305 | 0.331 | 0.303 | 0.454 | 0.296 | 0.381 | 0.401 | 0.542 | 0.75 | 0.45
18 | RERF-LC-KJ | 0.689 | 0.574 | 0.3 | 0.922 | 0.859 | 0.939 | 0.835 | 0.763 | 0.982 | 0.934 | 0.77 | 0.883 | 0.732 | 0.396 | 0.447 | 0.403 | 0.442 | 0.377
19 | SK-LU-1 | 0.58 | 0.658 | 0.602 | 1.05 | 0.759 | 0.896 | 1.12 | 1.12 | – | 0.856 | 0.934 | 1.18 | 0.832 | 0.323 | 0.593 | 0.529 | 0.608 | 0.475
20 | SK-MES-1 | 0.41 | 0.335 | 0.305 | 1.09 | 0.925 | 1.06 | 0.971 | 0.989 | 0.455 | 0.542 | 0.408 | 0.473 | 0.445 | 0.677 | 0.776 | 0.648 | 0.767 | 0.62
21 | SW 1573 | 0.526 | 0.497 | 0.104 | 0.832 | 0.777 | 0.749 | 0.741 | 0.794 | 1.12 | 1.13 | 1.04 | 1.35 | 1.12 | 0.251 | 0.395 | – | 0.484 | 0.382
